This note sets out measurements from PubChem BioAssay (NCI).

Some test systems named below: SF-268 CNS; A498 renal; SNB-19 CNS; IGROV1 ovarian; HL-60(TB) leukemia; HT29 colon; MDA-MB-435; BT-549 breast; MDA-MB-231 breast; HS 578T breast.
What all share (experiment): NCI tumour cell line growth inhibition, 48 h

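Five concentrations, 48 hours, 96-well plates. Here, GI50 denotes the concentration required for 50% inhibition of growth. Definition used: TGI = concentration required for complete inhibition of growth.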

For the compound `C(CCC[Te][Te]CCCCCCOC1CCCCO1)CCOC1CCCCO1` (stereo not drawn), the TGI came out at 41.2 µM with SF-268 CNS; 37.8 µM in the test on A498 renal; 29 µM in the test with SNB-19 CNS; 48 µM in the test with IGROV1 ovarian; 37.9 µM in the test with HL-60(TB) leukemia; 25.6 µM in the test with HT29 colon.

As to `Cc1ccc(S(=O)(=O)NC(=O)NC23CC4CC(CC(F)(C4)C2)C3)cc1`, the TGI in the test with A498 renal, in the test on SNB-19 CNS, in the test on IGROV1 ovarian, in the test on HL-60(TB) leukemia and with HT29 colon was greater than 100 µM throughout.

Consider `O=C(Nc1nc2ccccc2n1Cc1ccccc1)NC12CC3CC(CC(C3)C1)C2`, for which the TGI in the test on SF-268 CNS is 35.5 µM; with SNB-19 CNS it was greater than 100 µM; in the test with IGROV1 ovarian, greater than 100 µM; with HL-60(TB) leukemia it was greater than 100 µM; with HT29 colon it was greater than 100 µM.

`COCC(=O)CP(=O)(OC)OC`: the TGI with SF-268 CNS, in the test on A498 renal, with SNB-19 CNS, with IGROV1 ovarian, in the test with HL-60(TB) leukemia and in the test with HT29 colon was greater than 100 µM each time.

`O=c1cc2ccccc2nn1Cc1ccccc1Cl`: the TGI with SF-268 CNS, with A498 renal, with SNB-19 CNS, in the test with IGROV1 ovarian and with HT29 colon was greater than 100 µM each time.

As for `NC(=O)c1cc(Br)cc(C2CCCCC2)c1O`, the GI50 with SF-268 CNS is 11.4 µM; in the test on MDA-MB-435 it was 14.7 µM; with A498 renal, 1.01 µM; with SNB-19 CNS, 13.8 µM; in the test on BT-549 breast it was 13.6 µM; in the test on IGROV1 ovarian it was 12.4 µM. In addition, the GI50 in the test with HL-60(TB) leukemia is 20.9 µM; in the test with MDA-MB-231 breast, 12.1 µM; with HT29 colon, 16.8 µM. For the same compound, the TGI was determined as 25 µM with SF-268 CNS; 28.8 µM in the test on MDA-MB-435; 14.8 µM with A498 renal; 27.9 µM in the test with SNB-19 CNS; 26.4 µM in the test on BT-549 breast; 25.9 µM with IGROV1 ovarian. The values for the TGI in the test on HL-60(TB) leukemia, with MDA-MB-231 breast and in the test on HT29 colon were 46.3 µM, 25.3 µM and 32 µM, respectively.

As to `Cn1c(=O)nc2n(-c3cccc(F)c3)c3ccccc3nc-2c1=O`, the TGI was greater than 100 µM with SF-268 CNS; greater than 100 µM with A498 renal; 48.6 µM in the test with SNB-19 CNS; 62.5 µM in the test on IGROV1 ovarian; 32.5 µM in the test on HT29 colon.

In the case of `COc1cc2noc(-c3ccccc3)c2cc1OC`, the TGI with SF-268 CNS was greater than 100 µM; with A498 renal, 83.1 µM; in the test on SNB-19 CNS it was greater than 100 µM; in the test on IGROV1 ovarian, greater than 100 µM; in the test with HL-60(TB) leukemia, greater than 100 µM; with HT29 colon, greater than 100 µM.

With `CCC(=O)C(C)C1=Nc2nnc(CCCCCCCc3nnc4n3C(=O)C(C(C)C(=O)CC)=N4)n2C1=O` (stereo not drawn), the TGI with SF-268 CNS, in the test with A498 renal, in the test with SNB-19 CNS, in the test with IGROV1 ovarian, in the test on HL-60(TB) leukemia and in the test with HT29 colon was greater than 100 µM in each case.

Consider `CC(=O)OC1CC2C(C)(C)C(=O)C=C[C@]2(C)C2CCC3(C)C(c4ccoc4)C(=O)[C@H]4O[C@]43[C@]12C` (stereo partly drawn), for which the TGI in the test with SF-268 CNS is greater than 100 µM; in the test with A498 renal, 36.8 µM; in the test with SNB-19 CNS, 67.5 µM; in the test with IGROV1 ovarian it was 78.9 µM; in the test with HL-60(TB) leukemia, 42.3 µM.

In the case of `CC(=O)OCCOCNC(=S)N/N=C(\C)c1cnc2ccccc2n1`, the TGI with SF-268 CNS was greater than 100 µM; in the test with A498 renal, greater than 100 µM; in the test with SNB-19 CNS, greater than 100 µM; in the test with IGROV1 ovarian it was greater than 100 µM; with HL-60(TB) leukemia, 80.8 µM; with HT29 colon, greater than 100 µM.

On to `CCCCCC(=O)c1ccc2[nH]c3c(C)cc([N+](=O)[O-])c(C)c3c2c1`, for which the TGI in the test with SF-268 CNS, in the test with SNB-19 CNS, in the test with HL-60(TB) leukemia and in the test with HT29 colon was greater than 100 µM each time.

As for `CCOC(=O)c1[nH]c(-c2ccc(Cl)cc2)cc1-c1cccnc1`, the GI50 is 2.36 µM in the test on SF-268 CNS; 0.279 µM with MDA-MB-435; 0.811 µM in the test on A498 renal; 8.33 µM with SNB-19 CNS; 0.27 µM in the test on BT-549 breast; 1.37 µM in the test on IGROV1 ovarian. Moreover, the values for the GI50 in the test with MDA-MB-231 breast and with HT29 colon were 1.67 µM and 0.35 µM, respectively. In addition, the TGI with SF-268 CNS was greater than 100 µM; with MDA-MB-435, 1.42 µM; in the test with A498 renal, 9.37 µM; in the test on SNB-19 CNS, greater than 100 µM; in the test with BT-549 breast, 1.46 µM; in the test with IGROV1 ovarian, greater than 100 µM. For the same compound, the TGI in the test with MDA-MB-231 breast and in the test on HT29 colon was greater than 100 µM in each case.

`CN1NC2(CCCCC2)ON=C1c1ccccc1`: the TGI in the test with SF-268 CNS, in the test with A498 renal, with SNB-19 CNS, with IGROV1 ovarian, in the test on HL-60(TB) leukemia and in the test on HT29 colon was greater than 100 µM throughout.

`NC(=O)N/N=C/C(/C=N/NC(N)=O)[N+](=O)[O-]`: the TGI in the test with SF-268 CNS, in the test on A498 renal, in the test on SNB-19 CNS, in the test on IGROV1 ovarian, in the test with HL-60(TB) leukemia and in the test with HT29 colon was greater than 100 µM each time.

Regarding `CC/C=C\C[C@H](O)C/C=C1/C(=O)C=C[C@@H]1C/C=C\CCCC(=O)N(C)C`, the GI50 is 3.04 µM in the test with SF-268 CNS; 0.862 µM with MDA-MB-435; 2.56 µM in the test on A498 renal; 3.19 µM in the test on SNB-19 CNS; 3.3 µM in the test on IGROV1 ovarian; 4.29 µM in the test on HS 578T breast. Further, the results for the GI50 with HL-60(TB) leukemia, with MDA-MB-231 breast and in the test with HT29 colon were 2.27 µM, 3.12 µM and 0.853 µM, respectively. In addition, the TGI in the test on SF-268 CNS is 13.9 µM; in the test on MDA-MB-435, 2.37 µM; with A498 renal, 4.46 µM; with SNB-19 CNS, 14.1 µM; in the test with IGROV1 ovarian it was 11.2 µM; with HS 578T breast it was 27.6 µM. Also, the values for the TGI in the test on HL-60(TB) leukemia, with MDA-MB-231 breast and in the test on HT29 colon were 13.6 µM, 8.95 µM and 2.97 µM, respectively.
